Results from ChEMBL document CHEMBL3046355, “Design, synthesis, and herbicidal activities of novel 2-cyanoacrylates containing isoxazole moieties” (2010).

Tests used:
Format in all cases: functional
Brassica napus [1] = assay: Herbicidal activity against Brassica napus (oilseed rape) assessed as inhibition of weed growth at 750 g/ha using postemergence treatment protocol; conditions: post-emergence
Echinochloa crus-galli [2] = assay: Herbicidal activity against Echinochloa crus-galli (barnyard grass) assessed as inhibition of weed growth at 1.5 kg/ha using preemergence treatment protocol; conditions: pre-emergence
Brassica napus [3] = assay: Herbicidal activity against Brassica napus (oilseed rape) assessed as inhibition of weed growth at 150 g/ha using postemergence treatment protocol; conditions: post-emergence
Amaranthus retroflexus [4] = assay: Herbicidal activity against Amaranthus retroflexus assessed as inhibition of weed growth at 750 g/ha using postemergence treatment protocol; conditions: post-emergence
Digitaria sanguinalis [5] = assay: Herbicidal activity against Digitaria sanguinalis (hairy crabgrass) assessed as inhibition of weed growth at 1.5 kg/ha using post-emergence treatment protocol
Amaranthus retroflexus [6] = assay: Herbicidal activity against Amaranthus retroflexus assessed as inhibition of weed growth at 375 g/ha using postemergence treatment protocol; conditions: post-emergence
Digitaria sanguinalis [7] = assay: Herbicidal activity against Digitaria sanguinalis (hairy crabgrass) assessed as inhibition of weed growth at 1.5 kg/ha using pre-emergence treatment protocol
Amaranthus retroflexus [8] = assay: Herbicidal activity against Amaranthus retroflexus assessed as inhibition of weed growth at 75 g/ha using postemergence treatment protocol; conditions: post-emergence
Amaranthus retroflexus [9] = assay: Herbicidal activity against Amaranthus retroflexus assessed as inhibition of weed growth at 1.5 kg/ha using postemergence treatment protocol; conditions: post-emergence
Brassica napus [10] = assay: Herbicidal activity against Brassica napus (oilseed rape) assessed as inhibition of weed growth at 75 g/ha using postemergence treatment protocol; conditions: post-emergence
Brassica napus [11] = assay: Herbicidal activity against Brassica napus (oilseed rape) assessed as inhibition of weed growth at 1.5 kg/ha using postemergence treatment protocol; conditions: post-emergence
Amaranthus retroflexus [12] = assay: Herbicidal activity against Amaranthus retroflexus assessed as inhibition of weed growth at 1.5 kg/ha using preemergence treatment protocol; conditions: pre-emergence
Amaranthus retroflexus [13] = assay: Herbicidal activity against Amaranthus retroflexus assessed as inhibition of weed growth at 150 g/ha using postemergence treatment protocol; conditions: post-emergence
Brassica napus [14] = assay: Herbicidal activity against Brassica napus (oilseed rape) assessed as inhibition of weed growth at 375 g/ha using postemergence treatment protocol; conditions: post-emergence
Brassica napus [15] = assay: Herbicidal activity against Brassica napus (oilseed rape) assessed as inhibition of weed growth at 1.5 kg/ha using preemergence treatment protocol; conditions: pre-emergence
Echinochloa crus-galli [16] = assay: Herbicidal activity against Echinochloa crus-galli (barnyard grass) assessed as inhibition of weed growth at 1.5 kg/ha using postemergence treatment protocol; conditions: post-emergence

SMILES	inhibition at 750 g/ha (Brassica napus [1])	inhibition at 1500 g/ha (Echinochloa crus-galli [2])	inhibition at 150 g/ha (Brassica napus [3])	inhibition at 750 g/ha (Amaranthus retroflexus [4])	inhibition at 1500 g/ha (Digitaria sanguinalis [5])	inhibition at 375 g/ha (Amaranthus retroflexus [6])	inhibition at 1500 g/ha (Digitaria sanguinalis [7])	inhibition at 75 g/ha (Amaranthus retroflexus [8])	inhibition at 1500 g/ha (Amaranthus retroflexus [9])	inhibition at 75 g/ha (Brassica napus [10])	inhibition at 1500 g/ha (Brassica napus [11])	inhibition at 1500 g/ha (Amaranthus retroflexus [12])	inhibition at 150 g/ha (Amaranthus retroflexus [13])	inhibition at 375 g/ha (Brassica napus [14])	inhibition at 1500 g/ha (Brassica napus [15])	inhibition at 1500 g/ha (Echinochloa crus-galli [16])
CCOCCOC(=O)/C(C#N)=C(\NCc1cc(-c2ccc(Cl)cc2Cl)no1)C(C)C	100%	0%	21.8%	100%	63.3%	100%	18.1%	10.9%	100%	11.4%	100%	50.2%	19.6%	100%	21.3%	56.7%
CCOCCOC(=O)/C(C#N)=C(\NCc1cc(-c2ccc(OC)cc2)no1)C(C)C	100%	0%	100%	100%	14.3%	100%	0%	65.2%	100%	82.5%	100%	45.2%	93.5%	100%	40.9%	0%
CCOCCOC(=O)/C(C#N)=C(\NCc1cc(-c2ccccc2)no1)C(C)C	100%	0%	97.3%	100%	59.4%	100%	24.9%	17.4%	100%	54.2%	100%	88.6%	78.3%	100%	28.7%	40%
CCOCCOC(=O)/C(C#N)=C(\NCc1ccc(Cl)nc1)SC	100%	3.6%	100%	87.9%	54.1%	18.7%	18.8%	0%	100%	80.9%	100%	32.4%	0%	100%	47.6%	55.3%
